This is an account of results in US7332476B2, “Pyridyl substituted ketolide antibiotics” (Novartis AG, priority 2003, dated 2008).

Values after ≈ are worked out from the molar mass of the structure shown.

Holding throughout (assay): MIC, broth microdilution (NCCLS)
In general terms: Dilution methods test growth across graded concentrations, often in twofold steps.

The test system of assay [1] is Streptococcus pneumoniae Stpn_Mef 5654. The assay is classed as cell-based. The conditions noted are these: Table 7, Strain ID K (Table 6): S. pneumoniae Stpn_Mef 5654; in µg/mL (unit assumed). The method, then: (§1) Strains. The bacterial isolates listed in Table 4 were cultivated from −70° C. frozen stocks by two consecutive overnight passages (P1, P2) at 35° C. on 5% blood agar (Remel, Lenexa, Kans.). Chocolate agar (Remel) is used for Haemophilus influenzae. H. influenzae and Streptococcus pneumoniae are incubated in 5-10% CO2
(§2) Drug Stock Preparation. To determine the amount of solvent to be used to give the desired final concentration, the formula “weight obtained in mg/final concentration in mg/ml” will be used. It will give the amount of solvent in ml needed to be added to give the desired concentration. For example, if 2.5 mg/ml is the desired concentration and the weight of compound is 13.7 mg, then the amount of solvent to be added is […]. Methanol is used as the solvent to dissolve the test compounds. Further dilution of stock is done in sterile, deionized water. Drug stocks are kept frozen at −70° C., protected from light.
(§3) Susceptibility Testing. MICs are determined by the broth microdilution method in accordance with the NCCLS guidelines. In brief, organism suspensions are adjusted to a 0.5 McFarland standard to yield a final inoculum between 3×10^5 and 7×10^5 CFU/ml. Drug dilutions and inocula are made in sterile, cation adjusted Mueller-Hinton Broth (CAMHB) (Remel) for all but S. pneumoniae [CAMHB with 2-5% lysed horse blood (Remel)] and H. influenzae [Haemophilus Test Medium (Remel)]. An inoculum volume of 100 μl is added to wells containing 100 μl of broth with 2-fold serial dilutions of drug. All inoculated microdilution trays are incubated in ambient air at 35° C. for 18-24 hours, except for S. pneumoniae, and H. influenzae (both at 5-10% CO2).
(§4) Following appropriate incubation, the MIC is determined and the MIC is defined as the lowest concentration of the drug that prevented visible growth.
(§5) Strains. The bacterial isolates listed in Table 8 were cultivated from −70° C. frozen stocks by two consecutive overnight passages (P1, P2) at 35° C. on 5% blood agar (Remel, Lenexa, Kans.). Chocolate agar (Remel) is used for Haemophilus influenzae. H. influenzae and Streptococcus pneumoniae are incubated in 5-10% CO2
(§6) Following appropriate incubation, the MIC is determined and the MIC is defined as the lowest concentration of the drug that prevented visible growth. […] Antibacterial activity of representative compounds of the invention were compared against telitromycin.

For assay [2], the system named is Streptococcus pyogenes Stpy_8668. The assay is classed as cell-based. The conditions noted are these: Table 7, Strain ID E (Table 6): S. pyogenes Stpy_8668. Summed up:
(§7)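 Broth microdilution per NCCLS in cation-adjusted Mueller-Hinton broth, with 2-5% lysed horse blood added for S. pneumoniae. Inoculum 3×10^5–7×10^5 CFU/ml, 2-fold drug dilutions, 18-24 h at 35° C; S. pneumoniae under 5-10% CO2, others ambient air. MIC = lowest concentration preventing visible growth.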

The test system of assay [3] is Streptococcus pneumoniae Stpn_297-749. Format: cell-based. As to conditions: Table 7, Strain ID G (Table 6): S. pneumoniae Stpn_297-749. An outline of the steps:
as §7

The subject of assay [4] is S. pneumoniae Stpn_Erm 6849. The assay is classed as cell-based, Streptococcus pneumoniae. The conditions noted are these: Table 7, Strain ID I (Table 6): S. pneumoniae Stpn_Erm 6849; unit assumed. The method, then:
as §1, §2, §3, §4

The subject of assay [5] is Staphylococcus epidermidis Step_14990. Format: cell-based. The conditions noted are these: Table 7, Strain ID B (Table 6): S. epidermidis Step_14990; in µg/mL (unit assumed). The method, then:
as §1, §2, §3, §4, §5, §6

Assay [6] relates to Enterococcus faecalis Enfa_29212. Format: cell-based. As to conditions: Table 7, Strain ID D (Table 6): E. faecalis Enfa_29212. The method, then: as §1, §2, §3, §4, §5, §6
Assay [7] relates to Staphylococcus epidermidis Step_f50654. The assay is classed as cell-based. As to conditions: Table 7, Strain ID C (Table 6): S. epidermidis Step_f50654; in µg/mL (unit assumed). As for the experimental part:
as §1, §2, §3, §4, §5, §6

The subject of assay [8] is Haemophilus influenzae Hain_49247. Format: cell-based. The conditions noted are these: Table 7, Strain ID M (Table 6): H. influenzae Hain_49247; unit assumed. The method, then: as §1, §2, §3, §4, §5, §6
Assay [9] has as its system Streptococcus pneumoniae Stpn_Mef S 3427. The assay is classed as cell-based. The conditions noted are these: Table 7, Strain ID L (Table 6): S. pneumoniae Stpn_Mef S 3427. The method, then:
as §1, §2, §3, §4, §5, §6

Assay [10] concerns Streptococcus pneumoniae Stpn_Erm S 4297. The assay is classed as cell-based. As to conditions: Table 7, Strain ID J (Table 6): S. pneumoniae Stpn_Erm S 4297. As for the experimental part:
as §1, §2, §3, §4, §5, §6

Assay [11] has as its system Staphylococcus aureus Stau_29213. Format: cell-based. As to conditions: Table 7, Strain ID A (Table 6): S. aureus Stau_29213; in µg/mL (unit assumed). As for the experimental part: as §1, §2, §3, §4, §5, §6
In assay [12] the test system is Streptococcus pneumoniae Stpn_280-962. Format: cell-based. As to conditions: Table 7, Strain ID H (Table 6): S. pneumoniae Stpn_280-962. Summed up:
as §7

Assay [13] relates to Streptococcus pneumoniae Stpn_49619. Format: cell-based. As to conditions: Table 7, Strain ID F (Table 6): S. pneumoniae Stpn_49619. Summed up: as §7

As for `CCC1OC(=O)C(C)C(=O)C(C)C(OC2OC(C)CC(N(C)C)C2O)C(C)(OC)CC(C)C(=O)C(C)C2C1OC(=O)N2CCCCn1ccc2ncccc21` (centres unmarked) [Compound 20m], the MIC was 0.2 in assay [1]; “=0.05” in assay [2]; “=0.05” in assay [3]; 0.2 µg/mL (≈ 0.259 µM) in assay [4]; 0.1 in [5]; “=0.05” in assay [6]. For the same compound, the MIC was 0.2 in assay [7]; 1.56 µg/mL (≈ 2.02 µM) in [8]; “=0.05” in assay [9]; “=0.05” in assay [10]; 0.2 in assay [11]; “=0.05” in assay [12]. The MIC result in assay [13] is “=0.05”.

As to `CCC1OC(=O)C(C)C(=O)C(C)C(OC2OC(C)CC(N(C)C)C2O)C(C)(OC)CC(C)C(=O)C(C)C2C1OC(=O)N2CCCCc1cnc2ccccc2c1` (centres unmarked) [Compound 20n], the MIC in assay [1] was 0.2; in [2] it was “=0.05”; in [3], “=0.05”; in assay [4] it was 0.4 µg/mL (≈ 0.512 µM); in assay [5], 0.2; in assay [6] (in µg/mL (unit assumed)) it was 0.1. Also, the MIC is 0.4 in assay [7]; 6.25 µg/mL (≈ 7.99 µM) in assay [8]; 0.1 in assay [9] (in µg/mL (unit assumed)); 0.1 µg/mL (≈ 0.128 µM) in [10] (unit assumed); 0.4 in [11]; “=0.05” in assay [12]. Moreover, the MIC result in [13] is recorded as “=0.05”.

For `CCC1OC(=O)C(C)C(=O)C(C)C(OC2OC(C)CC(N(C)C)C2O)C(C)(OC)CC(C)C(=O)C(C)C2C1OC(=O)N2CCCCc1cc(C)nc2ccccc12` (centres unmarked) [Compound 20o], the MIC was 0.2 in assay [1]; “=0.05” in assay [2]; “=0.05” in assay [3]; 1.56 µg/mL (≈ 1.96 µM) in assay [4]; 0.2 in assay [5]; 0.1 in [6] (in µg/mL (unit assumed)). For the same compound, the MIC in [7] was 0.2; in assay [8] it was 3.13 µg/mL (≈ 3.93 µM); in [9] (in µg/mL (unit assumed)), 0.1; in assay [10] (unit assumed) it was 0.1 µg/mL (≈ 0.126 µM); in assay [11], 0.2; in assay [12], “=0.05”. Further, in assay [13], the MIC result was “=0.05”.

Regarding `CCC1OC(=O)C(C)C(=O)C(C)C(OC2OC(C)CC(N(C)C)C2O)C(C)(OC)CC(C)C(=O)C(C)C2C1OC(=O)N2CCCCc1cc(C(F)(F)F)nc2ccccc12` (centres unmarked) [Compound 20p], the MIC in [1] is 0.78; in assay [2] (unit assumed) it was 0.1 µg/mL (≈ 0.118 µM); in [3], “=0.05”; in assay [4] it was 6.25 µg/mL (≈ 7.35 µM); in assay [5] it was 0.2; in [6] (in µg/mL (unit assumed)), 0.2. For the same compound, the MIC was 0.4 in [7]; 6.25 µg/mL (≈ 7.35 µM) in assay [8]; 0.2 in assay [9] (in µg/mL (unit assumed)); 0.78 µg/mL (≈ 0.918 µM) in assay [10] (unit assumed); 0.4 in [11]; 0.1 µg/mL (≈ 0.118 µM) in [12] (unit assumed). Besides, the MIC in [13] (unit assumed) came to 0.1 µg/mL (≈ 0.118 µM).

As to `CCC1OC(=O)C(C)C(=O)C(C)C(OC2OC(C)CC(N(C)C)C2O)C(C)(OC)CC(C)C(=O)C(C)C2C1OC(=O)N2CCCCc1ccnc2c(C(F)(F)F)cccc12` (centres unmarked) [Compound 20q], the MIC in assay [1] is 0.4; in [2], “=0.05”; in [3], “=0.05”; in [4], 1.56 µg/mL (≈ 1.84 µM); in assay [5] it was 0.2; in [6] (in µg/mL (unit assumed)) it was 0.1. The MIC was 0.4 in assay [7]; 12.5 µg/mL (≈ 14.7 µM) in assay [8]; 0.1 in assay [9] (in µg/mL (unit assumed)); 0.2 µg/mL (≈ 0.235 µM) in [10] (unit assumed); 0.4 in assay [11]; “=0.05” in assay [12]. For the same compound, the MIC entry in assay [13] is recorded as “=0.05”.
